Test results taken from PubChem BioAssay (NCI).
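The compound was tested at five concentrations on cells cultured in 96-well plates, with a 48-hour exposure period. GI50: concentration for 50% inhibition of growth. TGI: total growth inhibition.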

test system: OVCAR-5 ovarian; assay: inhibition of tumour cell growth, NCI panel, 48 h

SMILES	TGI [µM]	GI50 [µM]
CCOC(=O)CNC(=O)NC12CC3CC(CC(C3)C1)C2	> 550	
COc1cc2c(cc1OCCCCCN1CCN(c3ncnc4ccccc34)CC1)N=CC1CCCN1C2=O (stereo not given)	14.7	0.0359
O=C(NCCCl)O/N=C/c1cccnc1	> 100	
C/C1=C\[C@H](C)C[C@H](C)OC(=O)[C@H](C)NC(=O)[C@@H](Cc2ccc(O)c(Br)c2)N(C)C(=O)[C@H](C)NC(=O)[C@@H](C)C1	> 25	
CC(C)C1=CC23CCC4C(C)(C(=O)O)CCCC4(C)C2CC1C1C(=O)N(CCCCCCN2C(=O)C4C5CC6C7(C)CCCC(C)(C(=O)O)C7CCC6(C=C5C(C)C)C4C2=O)C(=O)C13 (stereo not given)	37.4	
COC(=O)c1ccccc1CC1Cc2cccc(C)c2C1=O (stereo not given)	> 100	

test system: SF-295 CNS; assay: inhibition of tumour cell growth, NCI panel, 48 h

SMILES	TGI [µM]	GI50 [µM]
C=CC1(C)CC(=O)C2(O)C(C)(O1)C(OC(C)=O)C(O)C1C(C)(C)CCC(O)C12C (stereo not given)	> 150	
Cc1cc(N(C)C)c2ccccc2[n+]1CCCCCCCCCC[n+]1c(C)cc(N(C)C)c2ccccc21	8.95	
CN1Cc2c(nc(-c3ccccc3)c[n+]2[O-])N(C)C1	> 100	
C=C(CN(C)C)C(=O)c1ccc(C(=O)C(=C)CN(C)C)cc1	> 100	
COc1cc(Nc2ccc3c(c2)CCC3)nc(OC)n1	> 100	
CNc1[nH]c(=S)nc2sc3c(c12)CCCC3	> 75	
N#Cc1sc2c(c1OC(=O)c1ccc(C(F)(F)F)cc1)c(=O)n(-c1ccccc1)c(=S)n2-c1ccccc1	71.4	
Cc1c2c(c(C)n1-c1ccccc1)C(=O)N(CCN1CCN(c3cccc(C(F)(F)F)c3)CC1)C2=O	> 100	
O[C@H]1[C@H](O)[C@@H](O)CN2CC[C@H](O)[C@H]12	> 100	
COc1cc(O)c2c(=O)c(OC)c(-c3ccc(OC)c(O)c3)oc2c1	> 100	
Clc1sc(Cl)c2c1[C@@H](Cl)C[C@@H]2Br	> 100	
O=C(OCC(Cl)(Cl)Cl)N1CC[C@H](C2CCCCC2)C1	31.5	
Clc1ccc(C=NC23CC4CC(CC(C4)C2)C3)c(Cl)c1	> 10	
c1ccc(C(C(=Nc2ccc(Cc3ccc(N=C(C(c4ccccc4)c4ccccc4)N4CC4)cc3)cc2)N2CC2)c2ccccc2)cc1	27.5	
C=C(C)CNCCN	> 100	
Cc1ccnc(NC(=S)Nc2ccc([N+](=O)[O-])cc2)c1	> 100	
O=C(CN1C(=O)CC(c2ccccc2)(c2ccccc2)C1=O)N1CCN(CCO)CC1	> 100	
COc1ccc2oc(=N)c(C(=O)Nc3ccccc3)cc2c1	43.9	
O=C1c2cccc3cccc(c23)C(=O)N1CCCNCCCCNCCCNCCCN1C(=O)c2cccc3cccc(c23)C1=O	22.7	
C=C(C)[C@H]1C2=CC(C(=O)OC)=C(C[C@H](C(=C)C)[C@@H](O)[C@@H](O)C3=C[C@H]1OC3=O)O2	> 100	
O=c1onc2n1-c1cc(Cl)ccc1C(=S)N1CSCC21 (stereo not given)	> 100	
COc1cc(C2c3cc4c(cc3[C@@H](Nc3ccccc3)C3COC(=O)[C@H]23)OCO4)cc(OC)c1O (stereo not given in full)	3.79	
OC(C#CCN1CCCC1)(c1ccccc1)c1ccccc1Cl (stereo not given)	45.8	

SMILES	TGI [µM]	GI50 [µM]
CSc1nc2c(c(N(C)C)n1)C(O)n1c(nc3ccccc31)S2 (stereo not given)	> 100	
O=C1NC(O)CCN1C1OC(CO)C(O)C1O (stereo not given)	> 250	
COc1ccc(-c2nc3ccccc3c(=S)n2OC(C)=O)cc1	> 25	
C=C1C(=O)[C@@]23CC[C@@H]4[C@@]5(C)CCC[C@@]4(OC5=O)[C@@]2(C)CC[C@@H]1C3	20.9	
Cn1ncc2c(NCc3ccccc3)ncnc21	> 100	
CCCCOCCOC1=C(Cl)C(=O)c2c(O)ccc(O)c2C1=O	2.91	
N#CC(c1ccccc1)N(CCOCCOCCN(C(=O)c1ccccc1)C(C#N)c1ccccc1)C(=O)c1ccccc1 (stereo not given)	> 100	
CN1CCN(Cc2cc3c(nn2)-c2ccccc2C3=O)CC1	> 100	
COc1cccc2c1OC(c1cccc3ccccc13)C([N+](=O)[O-])=C2 (stereo not given)	4.56	
CN(C)Cc1cc(C(=O)/C=C/c2ccc([N+](=O)[O-])cc2)cc(CN(C)C)c1O	38.9	
CC(C(=O)COCc1ccccc1)P1(=O)OC(C)(C)CN1C(C)(C)C (stereo not given)	> 100	
O=C(NN1C(=O)CS(=O)(=O)C1c1ccc(C(F)(F)F)cc1)c1ccncc1 (stereo not given)	> 100	
Cn1c2ccccc2c2c(=S)c3ccccc3ccc21	> 100	
CCOc1c(OC)cc(-c2nc3n(n2)C(=O)C(CC)S3)cc1OC (stereo not given)	> 10	
CC1OC(O[C@H]2C3C=CO[C@@H](OC4OC(CO)C(O)C(O)C4O)C3[C@@]3(COC(=O)/C=C/c4ccccc4)O[C@@H]23)C(O)C(O)C1O (stereo not given in full)	> 100	
O=C1C(=Nc2ccc(Nc3ccccc3)cc2)Oc2ccccc21	12.1	
COc1ccc(CC(N)=O)cc1OC	> 1250	
CCOC(=O)CNC(=O)NC12CC3CC(CC(C3)C1)C2	> 550	
COc1cc2c(cc1OCCCCCN1CCN(c3ncnc4ccccc34)CC1)N=CC1CCCN1C2=O (stereo not given)	0.0671	0.0226
O=C(NCCCl)O/N=C/c1cccnc1	> 100	
C/C1=C\[C@H](C)C[C@H](C)OC(=O)[C@H](C)NC(=O)[C@@H](Cc2ccc(O)c(Br)c2)N(C)C(=O)[C@H](C)NC(=O)[C@@H](C)C1	4.9	
COC(=O)c1ccccc1CC1Cc2cccc(C)c2C1=O (stereo not given)	> 100	

test system: SF-539 CNS; assay: inhibition of tumour cell growth, NCI panel, 48 h

SMILES	TGI [µM]	GI50 [µM]
C=CC1(C)CC(=O)C2(O)C(C)(O1)C(OC(C)=O)C(O)C1C(C)(C)CCC(O)C12C (stereo not given)	> 150	
Cc1cc(N(C)C)c2ccccc2[n+]1CCCCCCCCCC[n+]1c(C)cc(N(C)C)c2ccccc21	8.15	
CN1Cc2c(nc(-c3ccccc3)c[n+]2[O-])N(C)C1	> 100	
C=C(CN(C)C)C(=O)c1ccc(C(=O)C(=C)CN(C)C)cc1	> 100	
COc1cc(Nc2ccc3c(c2)CCC3)nc(OC)n1	> 100	
N#Cc1sc2c(c1OC(=O)c1ccc(C(F)(F)F)cc1)c(=O)n(-c1ccccc1)c(=S)n2-c1ccccc1	59	
Cc1c2c(c(C)n1-c1ccccc1)C(=O)N(CCN1CCN(c3cccc(C(F)(F)F)c3)CC1)C2=O	> 100	
O[C@H]1[C@H](O)[C@@H](O)CN2CC[C@H](O)[C@H]12	> 100	
COc1cc(O)c2c(=O)c(OC)c(-c3ccc(OC)c(O)c3)oc2c1	> 100	
Clc1ccc(C=NC23CC4CC(CC(C4)C2)C3)c(Cl)c1	> 10	
c1ccc(C(C(=Nc2ccc(Cc3ccc(N=C(C(c4ccccc4)c4ccccc4)N4CC4)cc3)cc2)N2CC2)c2ccccc2)cc1	37.8	
Cc1ccnc(NC(=S)Nc2ccc([N+](=O)[O-])cc2)c1	85.4	
O=C(CN1C(=O)CC(c2ccccc2)(c2ccccc2)C1=O)N1CCN(CCO)CC1	> 100	
COc1ccc2oc(=N)c(C(=O)Nc3ccccc3)cc2c1	51.6	
O=C1c2cccc3cccc(c23)C(=O)N1CCCNCCCCNCCCNCCCN1C(=O)c2cccc3cccc(c23)C1=O	1.94	
C=C(C)[C@H]1C2=CC(C(=O)OC)=C(C[C@H](C(=C)C)[C@@H](O)[C@@H](O)C3=C[C@H]1OC3=O)O2	> 100	
COc1cc(C2c3cc4c(cc3[C@@H](Nc3ccccc3)C3COC(=O)[C@H]23)OCO4)cc(OC)c1O (stereo not given in full)	1.8	
OC(C#CCN1CCCC1)(c1ccccc1)c1ccccc1Cl (stereo not given)	52.4	

SMILES	TGI [µM]	GI50 [µM]
CSc1nc2c(c(N(C)C)n1)C(O)n1c(nc3ccccc31)S2 (stereo not given)	77.2	
O=C1NC(O)CCN1C1OC(CO)C(O)C1O (stereo not given)	> 250	
COc1ccc(-c2nc3ccccc3c(=S)n2OC(C)=O)cc1	> 25	
C=C1C(=O)[C@@]23CC[C@@H]4[C@@]5(C)CCC[C@@]4(OC5=O)[C@@]2(C)CC[C@@H]1C3	6.3	
Cn1ncc2c(NCc3ccccc3)ncnc21	> 100	
CCCCOCCOC1=C(Cl)C(=O)c2c(O)ccc(O)c2C1=O	2.44	
N#CC(c1ccccc1)N(CCOCCOCCN(C(=O)c1ccccc1)C(C#N)c1ccccc1)C(=O)c1ccccc1 (stereo not given)	> 100	
CN1CCN(Cc2cc3c(nn2)-c2ccccc2C3=O)CC1	> 100	
CN(C)Cc1cc(C(=O)/C=C/c2ccc([N+](=O)[O-])cc2)cc(CN(C)C)c1O	40.5	
CC(C(=O)COCc1ccccc1)P1(=O)OC(C)(C)CN1C(C)(C)C (stereo not given)	> 100	
CCOc1c(OC)cc(-c2nc3n(n2)C(=O)C(CC)S3)cc1OC (stereo not given)	> 10	
O=C1C(=Nc2ccc(Nc3ccccc3)cc2)Oc2ccccc21	8.41	
COc1ccc(CC(N)=O)cc1OC	> 1250	
CCOC(=O)CNC(=O)NC12CC3CC(CC(C3)C1)C2	> 550	
COc1cc2c(cc1OCCCCCN1CCN(c3ncnc4ccccc34)CC1)N=CC1CCCN1C2=O (stereo not given)	0.0685	0.0268
O=C(NCCCl)O/N=C/c1cccnc1	> 100	
C/C1=C\[C@H](C)C[C@H](C)OC(=O)[C@H](C)NC(=O)[C@@H](Cc2ccc(O)c(Br)c2)N(C)C(=O)[C@H](C)NC(=O)[C@@H](C)C1	0.117	
COC(=O)c1ccccc1CC1Cc2cccc(C)c2C1=O (stereo not given)	> 100	

test system: SR leukemia; assay: inhibition of tumour cell growth, NCI panel, 48 h

SMILES	TGI [µM]
C=C(CN(C)C)C(=O)c1ccc(C(=O)C(=C)CN(C)C)cc1	> 100
COc1cc(Nc2ccc3c(c2)CCC3)nc(OC)n1	77.8
CNc1[nH]c(=S)nc2sc3c(c12)CCCC3	> 75
COc1cc(O)c2c(=O)c(OC)c(-c3ccc(OC)c(O)c3)oc2c1	> 100
Clc1sc(Cl)c2c1[C@@H](Cl)C[C@@H]2Br	48.3
O=C(OCC(Cl)(Cl)Cl)N1CC[C@H](C2CCCCC2)C1	40.6
Clc1ccc(C=NC23CC4CC(CC(C4)C2)C3)c(Cl)c1	> 10
c1ccc(C(C(=Nc2ccc(Cc3ccc(N=C(C(c4ccccc4)c4ccccc4)N4CC4)cc3)cc2)N2CC2)c2ccccc2)cc1	15.7
C=C(C)CNCCN	> 100
Cc1ccnc(NC(=S)Nc2ccc([N+](=O)[O-])cc2)c1	> 100
